{"source": "patent US6872574B2", "about": "“Proteomic analysis” (The Scripps Research Institute, priority 2000, dated 2005)", "molecules": {"B1": {"name": "cALDH-I (Rattus norvegicus) (protein)", "chain": "MSSPAQPAVPAPLANLKIQHTKIFINNEWHDSVSGKKFPVLNPATEEVICHVEEGDKADVDKAVKAARQAFQIGSPWRTMDASERGRLLNKLADLMERDRLLLATIEAINGGKVFANAYLSDLGGSIKALKYCAGWADKIHGQTIPSDGDIFTFTRREPIGVCGQIIPWNFPLLMFIWKIGPALSCGNTVVVKPAEQTPLTALHMASLIKEAGFPPGVVNIVPGYGPTAGAAISSHMDVDKVAFTGSTQVGKLIKEAAGKSNLKRVTLELGGKSPCIVFADADLDIAVEFAHHGVFYHQGQCCVAASRIFVEESVYDEFVRKSVERAKKYVLGNPLTQGINQGPQIDKEQHDKILDLIESGKKEGAKLECGGGRWGNKGFFVQPTVFSNVTDEMRIAKEEIFGPVQQIMKFKSIDDVIKRANNTTYGLAAGVFTKDLDRAITVSSALQAGVVWVNCYMILSAQCPFGGFKMSGNGRELGEHGLYEYTELKTVAMKISQKNS", "notes": "made in house; host or cells: E. coli BL-21"}, "B2": {"name": "STI: Kunitz-type serine protease inhibitor, soybean trypsin inhibitor (protein, UniProt P01070 25-205, looked up)", "Trypsin inhibitor A": "DFVLDNEGNPLENGGTYYILSDITAFGGIRAAPTGNERCPLTVVQSRNELDKGIGTIISSPYRIRFIAEGHPLSLKFDSFAVIMLCVGIPTEWSVVEDLPEGPAVKIGENKDAMDGWFRLERVSDDEFNNYKLVFCPQQAEDDKCGDIGISIDHDDGTRRLVVSKNKPLVVQFQKLDKESL"}}, "key": {"cALDH-I [1]": {"target": "T1, cALDH-I (Rattus norvegicus, UniProt P51647)", "T1 construct": "made in house; host or cells: E. coli BL-21", "T1 sequence (P51647 1-501)": "B1 chain", "assay_type": "binding"}, "rat testis proteome": {"system": "rat testis proteome", "assay_type": "binding"}, "cALDH-I [2]": {"target": "T1, cALDH-I", "assay": "cALDH-I enzyme assay and inhibition studies", "assay_type": "biochemical", "procedure": "(§1) cALDH-I activity was determined at 25° C. in Tris buffer (20 mM Tris-HCl, pH 8, 100 mM NaCl). Purified cALDH-I (0.2 μM) was preincubated with 15 (2.5 μM-15 μM) in DMSO (30 μL, 3% total incubation vol) in a volume of 950 μL for 5 to 45 min. After preincubation of the enzyme with inhibitor, remaining catalytic activity was measured by adding NAD^+ (500 μM final concentration) and propionaldehyde (1 mM final concentration) in 50 μL of buffer. Production of NADH from the oxidation of propionaldehyde was monitored by measuring the change in absorbance at 340 nm for 2 min. In substrate competition assays, purified cALDH-I (0.2 μM) was preincubated with either NAD^+ (50 μM) or propionaldehyde (25 μM) and 10 μM of 15 for 10 minutes at 25° C. in a volume of 950 μL. Remaining catalytic activity was monitored as described above."}, "[3]": {"details": "pH 8"}, "[4]": {"substrate": "CCC=O", "assay": "cALDH-I enzyme assay and inhibition studies", "assay_type": "biochemical, rat", "details": "other: His-tagged recombinant cALDH-I; pH 8.0; 25.0 °C", "procedure": "as §1"}, "trypsin": {"system": "trypsin", "assay_type": "binding"}, "serine hydrolases": {"system": "serine hydrolases", "assay_type": "binding, rat"}}}
{"molecule": "O=C(CCCCCCCCCOS(=O)(=O)c1ccccn1)NCCCCCNC(=O)CCCC[C@@H]1SC[C@@H]2NC(=O)N[C@@H]21", "note": "[Sulfonate 1, 10-((2-Pyridylsulfonyl)oxo)-N-biotinamidopentyldecanamide]", "values": [{"measurement": "labeling of 55-kDa protein in cALDH-I-transfected cells", "setting": "cALDH-I [1]", "value": "labeled strongly"}]}
{"molecule": "O=C(CCCCCCCCCOS(=O)(=O)c1cccs1)NCCCCCNC(=O)CCCCC1SCC2NC(=O)NC21", "note": "(stereo not drawn) [Sulfonate 11]", "values": [{"measurement": "specific (heat-sensitive) proteome reactivity", "setting": "rat testis proteome", "value": "reacted specifically with a 55 kDa protein, as well as two additional proteins"}]}
{"molecule": "CCCCCCCCS(=O)(=O)OCCCCCCCCCC(=O)NCCCCCNC(=O)CCCC[C@@H]1SC[C@@H]2NC(=O)N[C@@H]21", "note": "[Sulfonate 7, 10-((Octylsulfonyl)oxo)-N-biotinamidopentyldecanamide]", "values": [{"measurement": "specific (heat-sensitive) proteome reactivity", "setting": "rat testis proteome", "value": "All sulfonates except the octylsulfonate 7 labeled at least one member of the testis proteome in a heat-sensitive manner"}]}
{"molecule": "CS(=O)(=O)OCCCCCCCCCC(=O)NCCCCCNC(=O)CCCCC1SCC2NC(=O)NC21", "note": "(stereo not drawn) [Sulfonate 5, 10-((Methylsulfonyl)oxo)-N-biotinamidopentyldecanamide]", "values": [{"measurement": "nonspecific (heat-insensitive) proteome reactivity", "setting": "rat testis proteome", "value": "significant additional reactivity with the preheated proteome"}]}
{"molecule": "COc1ccc(S(=O)(=O)OCCCCCCCCCC(=O)NCCCCCNC(=O)CCCCC2SCC3NC(=O)NC32)cc1", "note": "(stereo not drawn) [Sulfonate 4, 10-((4-Methoxybenzenesulfonyl)oxo)-N-biotinamidopentyldecanamide]", "values": [{"measurement": "nonspecific (heat-insensitive) proteome reactivity", "setting": "rat testis proteome", "value": "significant additional reactivity with the preheated proteome"}]}
{"molecule": "O=C(CCCCCCCCCOS(=O)(=O)c1ccc([N+](=O)[O-])cc1)NCCCCCNC(=O)CCCCC1SCC2NC(=O)NC21", "note": "(stereo not drawn) [Sulfonate 8, 10-((4-Nitrobenzenesulfonyl)oxo)-N-biotinamidopentyldecanamide]", "values": [{"measurement": "specific (heat-sensitive) proteome reactivity", "setting": "rat testis proteome", "value": "reacted specifically with a 55 kDa protein, as well as two additional proteins"}]}
{"molecule": "CCCCCCCCOS(=O)(=O)c1ccccn1", "note": "[Sulfonate 15, 1-(2-Pyridylsulfonyl)oxo-octane]", "values": [{"measurement": "average Kobs/[I]", "setting": "cALDH-I [2]", "value": "(9.7+1.8)×10^3 M^−1min^−1"}, {"measurement": "stability to assay conditions", "setting": "[3]", "value": "stable to the assay conditions employed"}]}
{"molecule": "O=C(CCCCCCCCCOS(=O)(=O)c1cccc2cccnc12)NCCCCCNC(=O)CCCCC1SCC2NC(=O)NC21", "note": "(stereo not drawn) [Sulfonate 9, 10-((8-Quinolinesulfonyl)oxo)-N-biotinamidopentyldecanamide]", "values": [{"measurement": "specific (heat-sensitive) proteome reactivity", "setting": "rat testis proteome", "value": "reacted specifically with a 55 kDa protein, as well as two additional proteins"}]}
{"molecule": "B1", "values": [{"measurement": "Km", "setting": "[4]", "value": 4.2, "unit": "µM"}]}
{"molecule": "B2", "values": [{"measurement": "FP-biotin labeling of trypsin preincubated with STI", "setting": "trypsin", "value": "did not label"}, {"measurement": "FP-biotin labeling intensities in STI-treated sample", "setting": "serine hydrolases", "value": "several, but not all FP-biotin reactive proteins showed significantly lower labeling intensities"}]}
